What was measured:
[1] = Photochromic characteristics of cast polymethyl methacrylate film (coloration under mercury lamp, fading); type: physicochemical; conditions: PMMA film, 1.0×10^-4 mol/g, 0.1 mm, 35° C.
[2] = Photochromic characteristics of 2 mm molded thermosetting resin piece containing the spiroxazine; type: physicochemical
Procedure: The compound synthesized in Example 1, which was represented by the following formula: [drawing 286] was dissolved and dispersed in polymethyl methacrylate with the aid of benzene, and a cast film was prepared on a slide glass sheet (11.2 cm×3.7 cm) so that the concentration of the compound in the film was 1.0×10^-4 mol/g and the thickness of the film was 0.1 mm. The photochromic film was irradiated with rays of a mercury lamp (SHL-100 supplied by Toshiba) located 10 cm apart from the film at 35° C.+1° C. for 60 seconds to effect coloration in the film, and the photochromic characteristics were examined with respect to items described below.
Maximum absorption wavelength (λmax):
The maximum absorption wavelength λmax of the colored film was determined by using a spectrophotometer (220 A supplied by Hitachi).
After 60 seconds' irradiation under the above-mentioned conditions, the absorbance at the maximum absorption wavelength was measured.
The absorbance at the maximum absorption wavelength of the unirradiated film was measured. Half-value period t^1/2 :
After 60 seconds' irradiation, the time required for reduction of the absorbance of the film to 1/2 of [ε(60 seconds)-ε(0 second)] was measured.
0.4 parts by weight of the spiroxazine synthesized in Example 1 was added to a composition of 70 parts by weight of chlorostyrene with 30 parts by weight of 2,2-bis(3,5-dibromo-4-methacryloyloxyethoxyphenyl) propane. One part by weight of perbutyl ND was added to the composition as an initiator of radical polymerization and was sufficiently mixed. The mixture liquid was casted into a mold comprising a glass plate and a gasket made of an ethylene-vinyl acetate copolymer and was polymerized in the mold. The mold was placed in an air oven. Polymerization was carried out by gradually elevating the temperature of the air oven from 30° C. to 90° C. for 18 hours and keeping it at 90° C. over a period of 2 hours. After the termination of the polymerization, the mold was removed from the air oven. After the mold was allowed to cool, the polymer molded piece was removed from the glass of the mold.
The photochromic characteristics of the obtained molded piece having a thickness of 2 mm was measured in the same method as Example 65.
Excepting that the kinds and amounts of the monomers and the spiroxazine used in Example 129 were changed and polymerization was carried out by a known means depending on the monomers, Examples 130 to 144 are identical with Example 129.

[3] = Example 129: BMDBP/c1-st (30/70), compound 0.4 parts, 2 mm
[4] = Example 130: ADC (100), compound 0.001 parts
[5] = Example 131: TMP-TAC(100), compound 0.4 parts
[6] = Example 132: BADBP/DAP (60/40), compound 0.4 parts
[7] = Example 133: BMDBP/st (50/50), compound 10 parts
[8] = Example 134: DCIPF/st (70/30), compound 70 parts
[9] = Example 135: EGDMA/st (50/50), compound 30 parts
[10] = Example 136: monomer composition drawn as drawing 288, compound 1.0 parts
[11] = Example 137: monomer composition drawn as drawing 289, compound 0.6 parts
[12] = Example 138: DVB/PETTP(60/40), compound 0.03 parts
[13] = Example 139: XIC/DME (58/42), compound 0.2 parts
[14] = Example 140: XIC/HPA/DVB (10/50/40), compound 0.4 parts
[15] = Example 141: MMA/DEGDMA (70/30), compound 0.1 parts
[16] = Example 142: BADBPO/TBBM/DAP (50/30/20), compound 0.1 parts
[17] = Example 143: HEMA/XIC/BMA (30/20/50), compound 0.1 parts
[18] = Example 144: DEGDMA/BMA (40/60), compound 0.1 parts

For CN1c2ccccc2C2(CCCCC2)C12C=Nc1ccc3ccccc3c1O2 (stereo not drawn) [Compound 1], the t1/2 (half-value period of absorbance after irradiation) ([1]; after 60 seconds' irradiation) was 18 s, the “λ max (maximum absorption wavelength of the colored film)” value ([1]; mercury lamp 60 seconds) was 601 and the “ε (60 seconds)-ε (0 second)” value ([1]; mercury lamp 60 seconds, absorbance at λmax) was 1.4. For the same compound, the t1/2 [2, 3] was 20 s, the “ε(60 sec)-ε(0 sec)” value [2, 3] was 1.6 and the λmax [2, 3] was 604 nm. For the same compound, the t1/2 [2, 4] was 24 s, the “ε(60 sec)-ε(0 sec)” value [2, 4] was 0.9 and the λmax [2, 4] was 607 nm. For the same compound, the t1/2 [2, 5] was 28 s, the “ε(60 sec)-ε(0 sec)” value [2, 5] was 1.5 and the λmax [2, 5] was 607 nm. For the same compound, the t1/2 [2, 6] was 21 s, the “ε(60 sec)-ε(0 sec)” value [2, 6] was 1.5 and the λmax [2, 6] was 606 nm. For the same compound, the t1/2 [2, 7] was 20 s, the “ε(60 sec)-ε(0 sec)” value [2, 7] was 1.7 and the λmax [2, 7] was 604 nm. For the same compound, the t1/2 [2, 8] was 18 s, the “ε(60 sec)-ε(0 sec)” value [2, 8] was 1.8 and the λmax [2, 8] was 604 nm. The t1/2 [2, 9] was 19 s, the “ε(60 sec)-ε(0 sec)” value [2, 9] was 1.7 and the λmax [2, 9] was 604 nm. For the same compound, the t1/2 [2, 10] was 20 s, the “ε(60 sec)-ε(0 sec)” value [2, 10] was 1.6 and the λmax [2, 10] was 601 nm. For the same compound, the t1/2 [2, 11] was 22 s, the “ε(60 sec)-ε(0 sec)” value [2, 11] was 1.6 and the λmax [2, 11] was 601 nm. For the same compound, the t1/2 [2, 12] was 22 s, the “ε(60 sec)-ε(0 sec)” value [2, 12] was 1.5 and the λmax [2, 12] was 606 nm. For the same compound, the t1/2 [2, 13] was 19 s, the “ε(60 sec)-ε(0 sec)” value [2, 13] was 1.5 and the λmax [2, 13] was 604 nm. For the same compound, the t1/2 [2, 14] was 19 s, the “ε(60 sec)-ε(0 sec)” value [2, 14] was 1.6 and the λmax [2, 14] was 604 nm. The t1/2 [2, 15] was 18 s, the “ε(60 sec)-ε(0 sec)” value [2, 15] was 1.6 and the λmax [2, 15] was 601 nm. For the same compound, the t1/2 [2, 16] was 23 s, the “ε(60 sec)-ε(0 sec)” value [2, 16] was 1.6 and the λmax [2, 16] was 606 nm. For the same compound, the t1/2 [2, 17] was 22 s, the “ε(60 sec)-ε(0 sec)” value [2, 17] was 1.6 and the λmax [2, 17] was 601 nm. The t1/2 [2, 18] was 19 s, the “ε(60 sec)-ε(0 sec)” value [2, 18] was 1.6 and the λmax [2, 18] was 601 nm.
